Assay results taken from US20110178064A1, “SPIRO CONDENSED […] DERIVATIVES FOR USE AS ANTIBACTERIAL” (A[…]&D, priority 2007, published 2011).

target: Escherichia coli DNA gyrase A/B tetramer (Escherichia coli, UniProt P0AES4+P0AES6); assay: DNA gyrase supercoiling activity fluorescence polarisation assay; format: biochemical
Method: The supercoiling reactions may be quenched by the addition of 10 microliters/well of 40 nM oligodeoxynucleotide probe in 3× triplex-forming buffer consisting of 150 mM NaCl, and 150 mM sodium acetate at pH 3.5. The oligodeoxynucleotide probe may be 5′-BODIPY-FL-labeled […]. After 60 minutes, the fluorescence anisotropy of the BODIPY-FL may be measured in a Tecan Ultra plate reader, using 485 nm excitation and 535 nm emission filters equipped with polarizers. The IC50 may be determined by nonliner regression using two control reactions. The first contains no test compound but 0.8% DMSO (100% activity) while the second control reaction contains 5 uM Ciprofloxacin and 0.8% DMSO (0% activity).

Escherichia coli DNA gyrase A/B tetramer, sequence (P0AES4 whole entry, one chain of several): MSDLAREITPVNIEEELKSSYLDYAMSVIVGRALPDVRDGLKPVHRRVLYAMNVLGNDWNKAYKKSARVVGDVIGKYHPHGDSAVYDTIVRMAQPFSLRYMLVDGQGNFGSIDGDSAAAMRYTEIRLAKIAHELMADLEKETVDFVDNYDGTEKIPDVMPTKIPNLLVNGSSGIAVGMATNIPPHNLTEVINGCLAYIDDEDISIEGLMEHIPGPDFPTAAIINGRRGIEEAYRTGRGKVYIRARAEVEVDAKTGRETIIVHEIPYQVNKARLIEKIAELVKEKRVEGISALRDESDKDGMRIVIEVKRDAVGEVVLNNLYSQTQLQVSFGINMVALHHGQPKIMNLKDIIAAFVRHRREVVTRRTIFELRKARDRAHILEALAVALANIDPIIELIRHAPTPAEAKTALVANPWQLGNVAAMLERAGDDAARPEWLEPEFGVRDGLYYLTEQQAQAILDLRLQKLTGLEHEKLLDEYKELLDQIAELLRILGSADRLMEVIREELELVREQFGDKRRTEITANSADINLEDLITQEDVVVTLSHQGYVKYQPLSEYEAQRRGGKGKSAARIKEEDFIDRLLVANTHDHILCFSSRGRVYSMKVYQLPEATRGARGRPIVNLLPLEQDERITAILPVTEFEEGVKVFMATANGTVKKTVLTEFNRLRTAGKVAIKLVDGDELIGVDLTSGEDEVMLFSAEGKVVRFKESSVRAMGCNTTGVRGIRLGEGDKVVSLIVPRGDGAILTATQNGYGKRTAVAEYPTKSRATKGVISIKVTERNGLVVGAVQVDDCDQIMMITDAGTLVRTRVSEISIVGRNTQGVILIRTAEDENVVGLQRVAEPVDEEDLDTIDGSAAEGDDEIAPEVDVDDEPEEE

`C[C@@H]1CN2c3cnc(-c4ccccn4)cc3CC3(C(=O)NC(=O)NC3=O)[C@H]2[C@H](C)O1` (relative stereo) [Example 55, (6aS,7S,9R)-rel-7,9-Dimethyl-3-(pyridin-2-yl)-6a,7,9,10-tetrahydro-2′H,5H-spiro[1,4-oxazino[4,3-a][1,7]naphthyridine-6,5′-pyrimidine]-2′,4′,6′(1′H,3′H)-trione] and `C[C@@H]1CN2c3cnc(-c4ccncc4)cc3CC3(C(=O)NC(=O)NC3=O)[C@H]2[C@H](C)O1` (relative stereo) [Example 65, (6aS,7S,9R)-rel-7,9-Dimethyl-3-(pyridin-4-yl)-6a,7,9,10-tetrahydro-2′H,5H-spiro[1,4-oxazino[4,3-a][1,7]naphthyridine-6,5′-pyrimidine]-2′,4′,6′(1′H,3′H)-trione] cannot be ordered by IC50: 21 µM for the first, greater than 10 µM for the second.

Going from `C[C@@H]1CN2c3cnc(-c4ccnn4C)cc3CC3(C(=O)NC(=O)NC3=O)[C@H]2[C@H](C)O1` (relative stereo) [Example 57, (6aS,7S,9R)-rel-7,9-dimethyl-3-(1-methyl-1H-pyrazol-5-yl)-6a,7,9,10-tetrahydro-2′H,5H-spiro[1,4-oxazino[4,3-a][1,7]naphthyridine-6,5′-pyrimidine]-2′,4′,6′(1′H,3′H)-trione] to `C[C@@H]1CN2c3cnc(-c4cnn(C)c4)cc3CC3(C(=O)NC(=O)NC3=O)[C@H]2[C@H](C)O1` (relative stereo) [Example 66, (6aS,7S,9R)-rel-7,9-dimethyl-3-(1-methyl-1H-pyrazol-4-yl)-6a,7,9,10-tetrahydro-2′H,5H-spiro[1,4-oxazino[4,3-a][1,7]naphthyridine-6,5′-pyrimidine]-2′,4′,6′(1′H,3′H)-trione], the IC50 rises from 9 µM to greater than 83 µM.

First: C[C@@H]1CN2c3cnc(-c4cn[nH]c4)cc3CC3(C(=O)NC(=O)NC3=O)[C@H]2[C@H](C)O1 (relative stereo) [Example 59, (6aS,7S,9R)-rel-7,9-Dimethyl-3-(1H-pyrazol-4-yl)-6a,7,9,10-tetrahydro-2′H,5H-spiro[1,4-oxazino[4,3-a][1,7]naphthyridine-6,5′-pyrimidine]-2′,4′,6′(1′H,3′H)-trione]
Second: C[C@@H]1CN2c3cnc(-c4cncnc4)cc3CC3(C(=O)NC(=O)NC3=O)[C@H]2[C@H](C)O1 (relative stereo) [Example 60, (6aS,7S,9R)-rel-7,9-Dimethyl-3-(pyrimidin-5-yl)-6a,7,9,10-tetrahydro-2′H,5H-spiro[1,4-oxazino[4,3-a][1,7]naphthyridine-6,5′-pyrimidine]-2′,4′,6′(1′H,3′H)-trione]
The IC50 of the first is 8.3-fold higher: 50 µM for the first, 6 µM for the second.

`C[C@@H]1CN2c3cnc(-c4cccc5cccnc45)cc3CC3(C(=O)NC(=O)NC3=O)[C@H]2[C@H](C)O1` (relative stereo) [Example 62, (6aS,7S,9R)-rel-7,9-Dimethyl-3-(quinolin-8-yl)-6a,7,9,10-tetrahydro-2′H,5H-spiro[1,4-oxazino[4,3-a][1,7]naphthyridine-6,5′-pyrimidine]-2′,4′,6′(1′H,3′H)-trione] and `C[C@@H]1CN2c3ccc(-c4cccc5cccnc45)nc3CC3(C(=O)NC(=O)NC3=O)[C@H]2[C@H](C)O1` (relative stereo) [Example 75, (2R,4S,4aS)-rel-2,4-Dimethyl-8-(quinolin-8-yl)-1,2,4,4a-tetrahydro-2′H,6H-spiro[1,4-oxazino[4,3-a][1,5]naphthyridine-5,5′-pyrimidine]-2′,4′,6′(1′H,3′H)-trione] are the same in IC50: 8 µM for the first, 8 µM for the second.

First: C[C@@H]1CN2c3cnc(-c4ccoc4)cc3CC3(C(=O)NC(=O)NC3=O)[C@H]2[C@H](C)O1 (relative stereo) [Example 63, (6aS,7S,9R)-rel-3-(furan-3-yl)-7,9-dimethyl-6a,7,9,10-tetrahydro-2′H,5H-spiro[1,4-oxazino[4,3-a][1,7]naphthyridine-6,5′-pyrimidine]-2′,4′,6′(1′H,3′H)-trione]
Second: C[C@@H]1CN2c3ccc(-c4ccoc4)nc3CC3(C(=O)NC(=O)NC3=O)[C@H]2[C@H](C)O1 (relative stereo) [Example 76, (2R,4S,4aS)-rel-8-(Furan-3-yl)-2,4-dimethyl-1,2,4,4a-tetrahydro-2′H,6H-spiro[1,4-oxazino[4,3-a][1,5]naphthyridine-5,5′-pyrimidine]-2′,4′,6′(1′H,3′H)-trione]
The IC50 of the first is 1.7-fold higher: 35 µM for the first, 21 µM for the second. The second is the more potent here.

Going from `Cc1noc(C)c1-c1cc2c(cn1)N1C[C@@H](C)O[C@@H](C)[C@@H]1C1(C2)C(=O)NC(=O)NC1=O` (relative stereo) [Example 64, (6aS,7S,9R)-rel-3-(3,5-Dimethylisoxazol-4-yl)-7,9-dimethyl-6a,7,9,10-tetrahydro-2′H,5H-spiro[1,4-oxazino[4,3-a][1,7]naphthyridine-6,5′-pyrimidine]-2′,4′,6′(1′H,3′H)-trione] to `Cc1noc(C)c1-c1ccc2c(n1)CC1(C(=O)NC(=O)NC1=O)[C@H]1[C@H](C)O[C@H](C)CN21` (relative stereo) [Example 77, (2R,4S,4aS)-rel-8-(3,5-Dimethylisoxazol-4-yl)-2,4-dimethyl-1,2,4,4a-tetrahydro-2′H,6H-spiro[1,4-oxazino[4,3-a][1,5]naphthyridine-5,5′-pyrimidine]-2′,4′,6′(1′H,3′H)-trione], the IC50 falls from greater than 83 µM to 8 µM. The second is the more potent here.

Going from `C[C@@H]1CN2c3ccc(-c4cc5ccccc5o4)nc3CC3(C(=O)NC(=O)NC3=O)[C@H]2[C@H](C)O1` (relative stereo) [Example 68, (2R,4S,4aS)-rel-8-(1-Benzofuran-2-yl)-2,4-dimethyl-1,2,4,4a-tetrahydro-2′H,6H-spiro[1,4-oxazino[4,3-a][1,5]naphthyridine-5,5′-pyrimidine]-2′,4′,6′(1′H,3′H)-trione] to `C[C@@H]1CN2c3ccc(-c4cccnc4)nc3CC3(C(=O)NC(=O)NC3=O)[C@H]2[C@H](C)O1` (relative stereo) [Example 74, (2R,4S,4aS)-rel-2,4-Dimethyl-8-(pyridin-3-yl)-1,2,4,4a-tetrahydro-2′H,6H-spiro[1,4-oxazino[4,3-a][1,5]naphthyridine-5,5′-pyrimidine]-2′,4′,6′(1′H,3′H)-trione], the IC50 falls from 8 µM to 4 µM (2-fold).

First: C[C@@H]1CN2c3ccc(-c4ccnn4C)nc3CC3(C(=O)NC(=O)NC3=O)[C@H]2[C@H](C)O1 (relative stereo) [Example 70, (2R,4S,4aS)-rel-2,4-Dimethyl-8-(1-methyl-1H-pyrazol-5-yl)-1,2,4,4a-tetrahydro-2′H,6H-spiro[1,4-oxazino[4,3-a][1,5]naphthyridine-5,5′-pyrimidine]-2′,4′,6′(1′H,3′H)-trione]
Second: C[C@@H]1CN2c3ccc(-c4cnn(C)c4)nc3CC3(C(=O)NC(=O)NC3=O)[C@H]2[C@H](C)O1 (relative stereo) [Example 79, (2R,4S,4aS)-rel-2,4-Dimethyl-8-(1-methyl-1H-pyrazol-4-yl)-1,2,4,4a-tetrahydro-2′H,6H-spiro[1,4-oxazino[4,3-a][1,5]naphthyridine-5,5′-pyrimidine]-2′,4′,6′(1′H,3′H)-trione]
The IC50 of the first is 5.7-fold lower: 3 µM for the first, 17 µM for the second.

Going from `COc1ccncc1-c1ccc2c(n1)CC1(C(=O)NC(=O)NC1=O)[C@H]1[C@H](C)O[C@H](C)CN21` (relative stereo) [Example 71, (2R,4S,4aS)-rel-8-(4-Methoxypyridin-3-yl)-2,4-dimethyl-1,2,4,4a-tetrahydro-2′H,6H-spiro[1,4-oxazino[4,3-a][1,5]naphthyridine-5,5′-pyrimidine]-2′,4′,6′(1′H,3′H)-trione] to `C[C@@H]1CN2c3ccc(-c4ccncc4)nc3CC3(C(=O)NC(=O)NC3=O)[C@H]2[C@H](C)O1` (relative stereo) [Example 78, (2R,4S,4aS)-rel-2,4-dimethyl-8-(pyridin-4-yl)-1,2,4,4a-tetrahydro-2′H,6H-spiro[1,4-oxazino[4,3-a][1,5]naphthyridine-5,5′-pyrimidine]-2′,4′,6′(1′H,3′H)-trione], the IC50 falls from 16 µM to 2 µM (8-fold).

Going from `C[C@@H]1CN2c3ccc(-c4cncnc4)nc3CC3(C(=O)NC(=O)NC3=O)[C@H]2[C@H](C)O1` (relative stereo) [Example 73, (2R,4S,4aS)-rel-2,4-Dimethyl-8-(pyrimidin-5-yl)-1,2,4,4a-tetrahydro-2′H,6H-spiro[1,4-oxazino[4,3-a][1,5]naphthyridine-5,5′-pyrimidine]-2′,4′,6′(1′H,3′H)-trione] to `C[C@@H]1CN2c3ccc(-c4cnccn4)nc3CC3(C(=O)NC(=O)NC3=O)[C@H]2[C@H](C)O1` (relative stereo) [Example 80, (2R,4S,4aS)-rel-2,4-Dimethyl-8-(pyrazin-2-yl)-1,2,4,4a-tetrahydro-2′H,6H-spiro[1,4-oxazino[4,3-a][1,5]naphthyridine-5,5′-pyrimidine]-2′,4′,6′(1′H,3′H)-trione], the IC50 rises from 3 µM to greater than 5 µM.

Going from `C[C@@H]1CN2c3ncc(-c4ccc(F)cc4)cc3CC3(C(=O)NC(=O)NC3=O)[C@H]2[C@H](C)O1` (relative stereo) [Example 81, (6aS,7S,9R)-rel-3-(4-Fluorophenyl)-7,9-dimethyl-6a,7,9,10-tetrahydro-2′H,5H-spiro[1,4-oxazino[4,3-a][1,8]naphthyridine-6,5′-pyrimidine]-2′,4′,6′(1′H,3′H)-trione] to `Cc1ccccc1-c1cnc2c(c1)CC1(C(=O)NC(=O)NC1=O)[C@H]1[C@H](C)O[C@H](C)CN21` (relative stereo) [Example 82, (6aS,7S,9R)-rel-7,9-Dimethyl-3-(2-methylphenyl)-6a,7,9,10-tetrahydro-2′H,5H-spiro[1,4-oxazino[4,3-a][1,8]naphthyridine-6,5′-pyrimidine]-2′,4′,6′(1′H,3′H)-trione], the IC50 rises from 8 µM to greater than 83 µM.

`COc1ccccc1-c1cnc2c(c1)CC1(C(=O)NC(=O)NC1=O)[C@H]1[C@H](C)O[C@H](C)CN21` (relative stereo) [Example 83, (6aS,7S,9R)-rel-3-(2-Methoxyphenyl)-7,9-dimethyl-6a,7,9,10-tetrahydro-2′H,5H-spiro[1,4-oxazino[4,3-a][1,8]naphthyridine-6,5′-pyrimidine]-2′,4′,6′(1′H,3′H)-trione] showed an IC50 greater than 83 µM.
